Data: PubChem BioAssay (NCI)
Several values for one entry are separate records, joined by “and”; a condition that tells them apart may be missing. Equal entries are not always repeated.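 A five-concentration, 48-hour dose response in 96-well plates underlies each endpoint, interpolated linearly between surrounding concentrations. GI50 marks 50% less growth. TGI is the concentration that stops growth completely.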

Experiments:
Test in all cases: NCI tumour cell line growth inhibition, 48 h
DMS 273 small cell lung = tested on: DMS 273 small cell lung
LXFL 529 NSCLC = tested on: LXFL 529 NSCLC
M19-MEL melanoma = tested on: M19-MEL melanoma
SNB-78 CNS = tested on: SNB-78 CNS
XF 498 CNS = tested on: XF 498 CNS
MDA-N = tested on: MDA-N
DMS 114 small cell lung = tested on: DMS 114 small cell lung
RXF-631 renal = tested on: RXF-631 renal
HOP-18 NSCLC = tested on: HOP-18 NSCLC
P388 leukemia = tested on: P388 leukemia
P388/ADR leukemia = tested on: P388/ADR leukemia

Compound | TGI (DMS 273 small cell lung) | TGI (LXFL 529 NSCLC) [µM] | TGI (M19-MEL melanoma) | TGI (SNB-78 CNS) [µM] | TGI (XF 498 CNS) | TGI (MDA-N) [µM] | TGI (DMS 114 small cell lung) | TGI (RXF-631 renal) [µM] | TGI (HOP-18 NSCLC) | also measured
O=C(Cc1nc2ccccc2s1)Nc1ccc(Cl)cc1 | > 100 µM | > 100 | > 100 µM | > 100 | > 100 µM | – | – | – | – | –
CCCOc1ccc(-c2nc(-c3ccc(N=Cc4ccc(N(CCOS(C)(=O)=O)CCOS(C)(=O)=O)cc4C)cc3)cs2)cc1 | – | – | – | – | – | > 85 | – | – | – | –
C#Cc1c(C)c(/C=C/C(C)=C/C=C/C(C)=C/C(=O)OC)n(C)c1C | – | > 100 | > 100 µM | > 100 | > 100 µM | – | > 100 µM | > 100 | – | –
C[C@H](N)C(=O)N[C@@H]1[C@H]2C(=C(O)C[C@@H](O)[C@@H]2O)C(=O)O[C@]1(C)C(Cl)Cl | 1.57 µM and 1.44 µM | 1.53 | 1.22 µM and 2.62 µM | 2.1 | 1.05 µM and 0.31 µM | – | 0.98 µM and 1.28 µM | 1.93 | 4.39 µM and 2.76 µM | GI50 (DMS 273 small cell lung): 0.279 µM; GI50 (HOP-18 NSCLC): 0.375 µM; GI50 (MDA-N): 0.438 µM; TGI (P388 leukemia): 0.453 µM; TGI (P388/ADR leukemia): 2.1 µM; GI50 (XF 498 CNS): 0.211 µM
COc1ccc2c(c1O)C(=O)C(CCC(=O)O)CC2 (stereo not given) | > 100 µM | > 100 | > 100 µM | > 100 | > 100 µM | – | > 100 µM | > 100 | > 100 µM | –
CO/[N+]([O-])=C\C(=O)N/C=C/C(=O)O | – | – | – | – | – | > 100 | – | – | – | –
NC(=O)/C(=C\c1ccncc1)c1cccc2ccccc12 | – | – | – | – | – | > 100 | – | – | – | –
O=C(NCCO)c1cc2c(cn1)[nH]c1ccccc12 | > 100 µM | > 100 | – | > 100 | > 100 µM | – | > 100 µM | > 100 | – | –
COc1c2ccoc2cc2oc(=O)ccc12 | – | – | – | – | – | > 100 | – | – | – | –
C#CCSc1n[nH]c(-c2ccco2)n1 | – | – | – | – | – | > 100 | – | – | – | –
CCC(=O)C1(c2ccccc2)CCN(C)CC1 | – | – | – | – | – | > 100 | – | – | – | –
CCc1c2c(nc3cc4c(c(N)c13)OCO4)-c1cc3c(c(=O)n1C2)COC(=O)[C@]3(O)CC | – | – | – | – | – | > 100 | – | – | – | –
O=C(O)C1=C(C(=O)Nc2ccccc2)C2C=CC1C2 (stereo not given) | > 100 µM | > 100 | > 100 µM | > 100 | > 100 µM | – | > 100 µM | – | > 100 µM | –
C=CCCOC(=O)CO[N+](=O)[O-] | > 100 µM | > 100 | > 100 µM | – | > 100 µM | – | > 100 µM | – | – | –
C=CC(=O)N1C/C(=C\c2ccccc2)C(=O)/C(=C/c2ccccc2)C1 | 2.13 µM | 2.82 | 2.48 µM | – | 3.54 µM | 1.07 | 2.73 µM | – | 9.97 µM | GI50 (MDA-N): 0.427 µM
CCSC(SCC)c1cc2c(cc1Br)OCO2 | 20.1 µM | – | > 100 µM | > 100 | 59.4 µM | – | 50.4 µM | 73.7 | – | –
CC1=C(C(=O)Nc2ccccc2C)C(c2ccc(C3C(C(=O)Nc4ccccc4C)=C(C)NC(C)=C3C(=O)Nc3ccccc3C)cc2)C(C(=O)Nc2ccccc2C)=C(C)N1 | 11.4 µM | 10.5 | 12.3 µM | 16.7 | 35.6 µM | 19.9 | 14 µM | 28.4 | – | –
O=c1[nH]cc(/C=N\Nc2ccccc2)c(=O)[nH]1 | – | – | – | – | – | > 100 | – | – | – | –
COc1ccc(/C=C/C(=O)C(C)(C)CN2CCCCC2)cc1 | 41.6 µM | 28.9 | 33.8 µM | 69 | 30.1 µM | – | 29.6 µM | – | 60.4 µM | –

Compound | TGI (DMS 273 small cell lung) | TGI (LXFL 529 NSCLC) [µM] | TGI (M19-MEL melanoma) | TGI (SNB-78 CNS) [µM] | TGI (XF 498 CNS) | TGI (MDA-N) [µM] | TGI (DMS 114 small cell lung) | TGI (RXF-631 renal) [µM] | TGI (HOP-18 NSCLC) | also measured
CC(/C=C/C(=O)c1sc(-n2nc(-c3ccccc3)cc2-c2ccccc2)nc1C)=C\c1ccccc1 | > 100 µM | > 100 | > 100 µM | – | – | – | > 100 µM | > 100 | – | GI50 (DMS 273 small cell lung): > 100 µM
Cc1nnc(N=Nc2c(O)[nH]c3c(Cl)cc(Cl)cc23)n1N | – | > 100 | > 100 µM | > 100 | – | – | – | – | > 100 µM | –
Nc1nc(Cl)cc(NCCCCCNc2cc(Cl)nc(N)n2)n1 | > 100 µM | > 100 | – | 88 | – | – | – | > 100 | > 100 µM | –
COCc1c(CO)cnc(C)c1OC1OC(CO)C(O)C(O)C1O (stereo not given) | > 100 µM | > 100 | > 100 µM | – | > 100 µM | – | > 100 µM | – | – | –
c1ccc(N=c2snc3scc(-c4ccccc4)n23)cc1 | > 100 µM | > 100 | > 100 µM | > 100 | 66.6 µM | – | 88.8 µM | > 100 | > 100 µM | –
CCOC(=O)Cc1nc2ccccc2s1 | 55.4 µM | 29.4 | 40.6 µM | 33 | 28 µM | – | – | 33.8 | 74.3 µM | –
CC(C)N(C(=O)C1(C)CC1)C(C)C | > 100 µM | > 100 | > 100 µM | > 100 | > 100 µM | – | > 100 µM | > 100 | > 100 µM | –
CC1=C(C(=O)Nc2ccccc2)C(c2ccc([N+](=O)[O-])cc2)C(C(=O)Nc2ccccc2)=C(C)N1 | 72.4 µM | 46.5 | 32.1 µM | > 100 | 49.2 µM | – | 52.1 µM | > 100 | – | –
COc1cc(Br)c(CC2(C#N)c3ccccc3C3C(N2C(=O)c2ccccc2)C3(Cl)Cl)cc1OC (stereo not given) | > 65.5 µM | > 65.5 | – | > 65.5 | > 65.5 µM | – | > 65.5 µM | – | > 65.5 µM | –
C[N+](C)(C)CC(=O)N/N=C(\CCC(=O)NCCc1ccccc1)CC(=O)c1ccccc1 | > 100 µM | > 100 | > 100 µM | > 100 | > 100 µM | – | > 100 µM | – | > 100 µM | –
COc1cc2c(c(OC)c1O)-c1ccc(OC)c(=O)cc1[C@@H](NC(=O)C(F)(F)F)CC2 | – | – | – | – | – | 0.0628 | – | – | – | –
O=C1OC(c2ccccc2)=N/C1=C\c1ccc2ccccc2c1 | – | – | > 100 µM | > 100 | > 100 µM | – | > 100 µM | – | > 100 µM | –
N.N.N.N.O=NN1CCCCCC1(P(=O)([O-])[O-])P(=O)([O-])[O-].[Pt+4].[Pt+4] | > 100 µM | > 100 | – | – | – | – | – | – | > 100 µM | GI50 (DMS 273 small cell lung): > 100 µM; GI50 (HOP-18 NSCLC): > 100 µM; GI50 (LXFL 529 NSCLC): > 100 µM
COc1cc2c3c(c4ccc(OC)c(OC)c4c2cc1OC)CN1CCC[C@@H]1C3 | – | – | – | – | – | 12.2 | – | – | – | –
COC(=O)NC1(NC(=O)OC)NC(=O)c2cc(OC)c(OC)cc2N1 | – | – | – | – | – | 16 | – | – | – | –
CCN(CC)CC.CCOc1ccc(NC(=O)N=C=[N-])cc1.[CH-]1CCCCC1.[CH-]1CCCCC1.[CH-]1CCCCC1.[Cl-].[Sn+4] | 0.0482 µM | 0.0488 | 0.0513 µM | 0.373 | 0.103 µM | 0.0471 | 0.0594 µM | 0.0648 | 0.0376 µM | GI50 (DMS 114 small cell lung): 0.0214 µM; GI50 (DMS 273 small cell lung): 0.0185 µM; GI50 (HOP-18 NSCLC): 0.0135 µM; GI50 (LXFL 529 NSCLC): 0.0193 µM; GI50 (M19-MEL melanoma): 0.0208 µM; GI50 (MDA-N): 0.0205 µM; GI50 (RXF-631 renal): 0.0202 µM; GI50 (SNB-78 CNS): 0.0472 µM; GI50 (XF 498 CNS): 0.0335 µM
CC1=CC(=O)CC(C)(C)C1(O)/C=C/C(C)=C/C(=O)O (stereo not given) | – | – | – | – | – | > 100 | – | – | – | –
C[C@H]1CC[C@H]([C@@H](C)[C@H]2[C@@H](O)C[C@H]3[C@@H]4CC[C@H]5C[C@@H](O)CC[C@]5(C)[C@H]4CC[C@]23C)NC1 | – | – | – | – | – | 43.8 | – | – | – | –
